Assay results: paper PMC9324074, “Novel Insights on Human Carbonic Anhydrase Inhibitors Based on Coumalic Acid: Design, Synthesis, Molecular Modeling Investigation, and Biological Studies” (International Journal of Molecular Sciences, 2022)
Like-named read-outs stand apart in the source and are kept apart here.

Columns and labels:
Assay in all cases: stopped-flow CO2 hydrase assay
Format in all cases: biochemical
[1] = molecular target: T1, hCA IX (Homo sapiens, UniProt Q16790)
T1 construct: gene CA9; recombinant, obtained in house
From the text: stopped-flow CO2 hydrase assay on hCA IX

[2] = molecular target: T2, hCA II (Homo sapiens, UniProt P00918); conditions: read-out: KI (μM) ^a / hCA I
T2 construct: gene CA2; recombinant, obtained in house
From the text: stopped-flow CO2 hydrase assay on hCA II

[3] = molecular target: T3, hCA I (Homo sapiens, UniProt P00915)
T3 construct: gene CA1; recombinant, obtained in house
T3 sequence (P00915 2-261): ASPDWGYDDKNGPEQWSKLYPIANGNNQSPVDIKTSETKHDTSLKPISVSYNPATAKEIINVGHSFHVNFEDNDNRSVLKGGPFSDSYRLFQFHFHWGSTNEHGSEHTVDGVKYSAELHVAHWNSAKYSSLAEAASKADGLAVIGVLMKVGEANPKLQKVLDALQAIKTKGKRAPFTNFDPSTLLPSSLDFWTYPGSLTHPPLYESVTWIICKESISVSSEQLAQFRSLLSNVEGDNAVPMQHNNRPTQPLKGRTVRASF
From the text: stopped-flow CO2 hydrase assay on hCA I

[4] = molecular target: T4, hCA XII (Homo sapiens, UniProt O43570)
T4 construct: gene CA12; recombinant, obtained in house
T4 sequence (O43570 30-289 limits assumed): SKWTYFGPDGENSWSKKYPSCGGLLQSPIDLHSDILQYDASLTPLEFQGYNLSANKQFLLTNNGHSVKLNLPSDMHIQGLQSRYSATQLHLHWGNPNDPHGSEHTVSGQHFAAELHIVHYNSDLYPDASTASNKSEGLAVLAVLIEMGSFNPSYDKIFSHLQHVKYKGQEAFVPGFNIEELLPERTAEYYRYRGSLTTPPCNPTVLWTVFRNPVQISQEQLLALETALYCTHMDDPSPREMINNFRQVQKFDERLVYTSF
From the text: stopped-flow CO2 hydrase assay on hCA XII

[5] = pH […] ([…] Hepes), […] Na2SO4, […] min preincubation at room temperature

Row | Molecule | Ki [1] | Ki [2] | Ki [3] | Ki [4] | Ki [1, 5] | Ki [2, 5] | Ki [3, 5] | Ki [4, 5]
1 | Cc1ccc(NC(=O)c2ccc(=O)oc2)cc1 [compound 3, 2-Oxo-N-(p-tolyl)-2H-pyran-5-carboxamide] | 2.9 µM | > 100 µM | > 100 µM | 0.8 µM |  |  |  | 
2 | O=C(Nc1ccc(Cl)cc1)c1ccc(=O)oc1 [compound 8, N-(4-Chlorophenyl)-2-oxo-2H-pyran-5-carboxamide] | 3.2 µM | > 100 µM | > 100 µM | 0.7 µM |  |  |  | 
3 | CC(C)c1ccc(NC(=O)c2ccc(=O)oc2)cc1 [compound 5, N-(4-Isopropylphenyl)-2-oxo-2H-pyran-5-carboxamide] | 0.273 µM | > 100 µM | > 100 µM | 0.068 µM |  |  |  | 
4 | N-(3-Morpholinopropyl)-2-oxo-2H-pyran-5-carboxamide [compound 15] |  |  |  |  | 0.326 µM | > 100 µM | > 100 µM | 0.087 µM
5 | O=C(Nc1ccccc1)c1ccc(=O)oc1 [compound 2, 2-Oxo-N-phenyl-2H-pyran-5-carboxamide] | 3 µM | > 100 µM | > 100 µM | 0.7 µM |  |  |  | 
6 | O=C(Nc1cccc2ccccc12)c1ccc(=O)oc1 [compound 13, N-(Naphthalen-1-yl)-2-oxo-2H-pyran-5-carboxamide] | 3.69 µM | > 100 µM | > 100 µM | 0.094 µM |  |  |  | 
7 | O=C(Nc1ccccc1I)c1ccc(=O)oc1 [compound 10, N-(2-Iodophenyl)-2-oxo-2H-pyran-5-carboxamide] | 0.281 µM | > 100 µM | > 100 µM | 0.081 µM |  |  |  | 
8 | COc1cccc(NC(=O)c2ccc(=O)oc2)c1 [compound 7, N-(3-Methoxyphenyl)-2-oxo-2H-pyran-5-carboxamide] | 0.315 µM | > 100 µM | > 100 µM | 0.265 µM |  |  |  | 
9 | COc1ccc(NC(=O)c2ccc(=O)oc2)cc1 [compound 6, N-(4-Methoxyphenyl)-2-oxo-2H-pyran-5-carboxamide] | 3.1 µM | > 100 µM | > 100 µM | 0.7 µM |  |  |  | 

More lines, now with the values ahead:

Row | Ki [1] | Ki [2] | Ki [3] | Ki [4] | Ki [1, 5] | Ki [2, 5] | Ki [3, 5] | Ki [4, 5] | Molecule
10 | 0.083 µM | > 100 µM | > 100 µM | 0.076 µM |  |  |  |  | O=C(Nc1ccc(-c2ccccc2)cc1)c1ccc(=O)oc1 [compound 11, N-([1,1′-Biphenyl]-4-yl)-2-oxo-2H-pyran-5-carboxamide]
11 | 0.082 µM | > 100 µM | > 100 µM | 0.089 µM |  |  |  |  | O=C(Nc1ccc(Br)cc1)c1ccc(=O)oc1 [compound 9, N-(4-Bromophenyl)-2-oxo-2H-pyran-5-carboxamide]
12 | 0.146 µM | > 100 µM | > 100 µM | 0.08 µM |  |  |  |  | O=C(Nc1ccccc1Cc1ccccc1)c1ccc(=O)oc1 [compound 12, N-(2-Benzylphenyl)-2-oxo-2H-pyran-5-carboxamide]
13 | 0.174 µM | > 100 µM | > 100 µM | 0.09 µM |  |  |  |  | Cc1cccc(NC(=O)c2ccc(=O)oc2)c1 [compound 4, 2-Oxo-N-(m-tolyl)-2H-pyran-5-carboxamide]
14 | 0.098 µM | > 100 µM | > 100 µM | 0.086 µM |  |  |  |  | O=C(NC1CCCCC1)c1ccc(=O)oc1 [compound 14, N-Cyclohexyl-2-oxo-2H-pyran-5-carboxamide]
15 | 0.073 µM | > 100 µM | > 100 µM | 0.083 µM |  |  |  |  | O=C(O)c1ccc(=O)oc1 [compound 1, coumalic acid]
